Laboratory results as given in US20210161804A1, “FLUTICASONE AND VILANTEROL FORMULATION AND INHALER” (KINDEVA DRUG DELIVERY L.P., priority 2018, published 2021).

What was measured:
[1] = Through life delivered dose (unit spray collection apparatus); type: physicochemical; settings: beginning, middle, end of unit, 3 MDIs, 28.3 L/minute
Procedure: The through life delivered dose was determined using standard unit spray collection apparatus (USCA) fitted with a filter. For each determination, an MDI was attached to the USCA using a coupler. Immediately prior to attachment, the MDI was vigorously shaken. Prior to collection of the test sample, the MDI was primed by actuating four times and before each priming actuation the MDI was vigorously shaken. For each example tested, three MDIs were used. Each MDI was tested with a single actuation into the instrument at the beginning, middle, and end of the unit resulting in 3 actuations per MDI (9 actuations total). The flow rate through the equipment was regulated to 28.3 L/minute+/−0.5 L/minute. The test sample deposited in the USCA was collected by rinsing with a known volume of collection solvent. The recovered samples were then analyzed for sample content using an HPLC assay with reference to a known standard. An HPLC instrument with a UV detector (220 nm at 0 minutes, 240 nm at 5 minutes) and a symmetry shield RP18, 150 mm×4.6 mm (3.5 microns) column (temperature 25° C.) was used. The mobile phase was 10 mM SDS (sodium dodecyl sulphate), 60:40 (v/v) acetetonitrile:50 mM NH4OAc (ammonium acetate), pH 5.50. The injection volume was 50 microliters and the flow rate was 1.0 mL/minute.

[2] = Next Generation Impactor (NGI) aerodynamic particle size distribution; type: physicochemical
Procedure: The aerodynamic particle size distribution emitted from each MDI was evaluated using a Next Generation Impactor Instrument (MSP Corporation, Shoreview, Minn.). For each test, an MDI was attached to the throat component (Emmace anatomical throat, Emmace Consulting, Lund, Sweden) of the NGI instrument and actuated 6 times into the instrument. Prior to each actuation the MDI was vigorously shaken Immediately prior to attachment, the MDI was primed by actuating 4 times. Prior to each priming shot the MDI was vigorously shaken. The flow rate through the instrument during testing was regulated at 30 L/minute. The test sample (fluticasone furoate and vilanterol trifenatate) deposited on the valve stem, actuator, throat assembly (Emmace anatomical throat), individual uncoated collection cups 1-7, micro-orifice collector (MOC), and final filter component was collected by rinsing each individual component with a known volume of collection solvent. The recovered samples were then analyzed for sample content using an HPLC assay with reference to a known standard. An HPLC instrument with a UV detector (220 nm at 0 minutes, 240 nm at 5 minutes) and a symmetry shield RP-18, 4.6-150 mm column (25° C. column temp) was used. The mobile phase was 10 mM SDS, 60:40 (v/v) […]:50 mM NH4OAc, pH 5.5). The injection volume was 50 microliters and the flow rate was 1.0 mL/min.
In Table 1 the fine particle mass (FPM), impactor sized mass (ISM), mass median aerodynamic diameter (MMAD), and throat hold up data for fluticasone furoate (FF) and vilanterol trifenatate (VT) is presented. At each time point 3 individual MDIs were tested and the result is presented as the mean value.
Total Ex-valve content was determined as the sum of the sample content from all twelve analyzed components (valve stem through filter) (reported as micrograms/actuation).
Throat hold up was determined as the ratio of the sample content from the throat assembly divided by the total ex-valve content.
Aerodynamic particle size from a Relvar® Ellipta® 92/22 (fluticasone furoate/vilanterol trifenatate) dry powder inhaler was evaluated as described above for NGI studies with the following changes. The Relvar device was not primed prior to analysis, nor was it shaken prior to actuation. For each test the Relvar was actuated once. An adaptor was prepared and used to obtain a good fit between device mouthpiece and the Emmace throat. A flow rate of approximately 80 L/min was used to achieve a 4 kPa pressure drop in the NGI. A pre-separator was used between the throat assembly and cup 1. Cups 1 to 7 were pre-coated with 50:50 (v/v) glycerol:methanol.
In tables 1-8 above, FPM and ISM are reported as micrograms (mcg) per actuation and MMAD is reported in microns (um). FPM (Fine Particle Mass) was determined as the sum of the sample content determined for cups 3-7, the MOC, and the filter. ISM (Impactor Sized Mass) was determined as the sum of the sample content determined for cups 2-7, the MOC, and the filter. In the examples, the concentrations of fluticasone furoate, vilanterol trifenatate, ethanol, and HFA-227 in the suspension formulations are reported as weight percent (wt. %).

[3] = MDIs of Example 8 (58 microliter primeless valve, no ethanol, HFA-227)
[4] = MDIs of Example 9 (58 microliter primeless valve, 0.05% ethanol, HFA-227)
[5] = MDIs of Example 10 (58 microliter primeless valve, 0.5% ethanol, HFA-227)
[6] = Comparative Example 1: Relvar Ellipta 92/22 dry powder inhaler, actuated once, approximately 80 L/min (4 kPa), pre-separator
[7] = Comparative Example 1: Relvar Ellipta 92/22 dry powder inhaler, approximately 80 L/min (4 kPa), pre-separator
[8] = MDI of Example 1: FF MMD about 3.7 microns, VT MMD about 1.4 microns, HFA-227, 30 L/minute
[9] = MDI of Example 1: FF MMD about 3.7 microns, VT MMD about 1.4 microns, HFA-227, 30 L/minute, Emmace anatomical throat
[10] = MDI of Example 1: FF MMD about 3.7 microns, VT MMD about 1.4 microns, HFA-227, per actuation, 30 L/minute
[11] = MDI of Example 1: FF MMD about 3.7 microns, VT MMD about 1.4 microns, HFA-227, per actuation, 30 L/minute, mean of 3 MDIs
[12] = MDI of Example 2: FF MMD about 2.9 microns, VT MMD about 1.4 microns, HFA-227, 30 L/minute
[13] = MDI of Example 2: FF MMD about 2.9 microns, VT MMD about 1.4 microns, HFA-227, per actuation, 30 L/minute
[14] = MDI of Example 3: FF MMD about 3.7 microns, VT MMD about 4.2 microns, HFA-227, 30 L/minute
[15] = MDI of Example 3: FF MMD about 3.7 microns, VT MMD about 4.2 microns, HFA-227, per actuation, 30 L/minute
[16] = MDI of Example 4: FF MMD about 2.9 microns, VT MMD about 3.4 microns, HFA-227, 30 L/minute
[17] = MDI of Example 4: FF MMD about 2.9 microns, VT MMD about 3.4 microns, HFA-227, per actuation, 30 L/minute
[18] = MDI of Example 5: FF micronized MMD about 2.0 microns, VT high pressure homogenized MMD about 1.4 microns, HFA-227, 30 L/minute
[19] = MDI of Example 5: FF micronized MMD about 2.0 microns, VT high pressure homogenized MMD about 1.4 microns, HFA-227, per actuation, 30 L/minute
[20] = MDI of Example 6: FF MMD about 2.9 microns, VT MMD about 1.4 microns, 0.05% ethanol, HFA-227, 30 L/minute
[21] = MDI of Example 6: FF MMD about 2.9 microns, VT MMD about 1.4 microns, 0.05% ethanol, HFA-227, per actuation, 30 L/minute
[22] = MDI of Example 7: FF MMD about 2.9 microns, VT MMD about 1.4 microns, 0.5% ethanol, HFA-227, 30 L/minute
[23] = MDI of Example 7: FF MMD about 2.9 microns, VT MMD about 1.4 microns, 0.5% ethanol, HFA-227, per actuation, 30 L/minute

mean through life delivered dose [1, 3] [micrograms/actuation] | mean through life delivered dose [1, 4] [micrograms/actuation] | mean through life delivered dose [1, 5] [micrograms/actuation] | FPM (fine particle mass) [2, 6] [µg] | ISM (impactor sized mass) [2, 6] [µg] | MMAD (mass median aerodynamic diameter) [2, 7] [um] | Throat hold up [2, 7] [%] | MMAD (mass median aerodynamic diameter) [2, 8] [um] | Throat hold up [2, 9] [%] | ISM (impactor sized mass) [2, 10] [µg] | FPM (fine particle mass) [2, 11] [µg] | MMAD (mass median aerodynamic diameter) [2, 12] [um] | Throat hold up [2, 12] [%] | FPM (fine particle mass) [2, 13] [µg] | ISM (impactor sized mass) [2, 13] [µg] | MMAD (mass median aerodynamic diameter) [2, 14] [um] | Throat hold up [2, 14] [%] | FPM (fine particle mass) [2, 15] [µg] | ISM (impactor sized mass) [2, 15] [µg] | MMAD (mass median aerodynamic diameter) [2, 16] [um] | Structure (SMILES) | further results
57.1 | 55.5 | 58.0 | 26.5 | 31.5 | 3.4 | 26.0 | 3.5 | 52.8 | 27.7 | 19.6 | 3.1 | 38.8 | 27.0 | 35.9 | 4.0 | 47.0 | 25.0 | 37.5 | 3.2 | C[C@@H]1C[C@H]2[C@@H]3C[C@H](F)C4=CC(=O)C=C[C@]4(C)[C@@]3(F)[C@@H](O)C[C@]2(C)[C@@]1(OC(=O)c1ccco1)C(=O)SCF [FF, fluticasone furoate] | Throat hold up [2, 16]: 43.0%; FPM (fine particle mass) [2, 17]: 28.5 µg; ISM (impactor sized mass) [2, 17]: 38.4 µg; MMAD (mass median aerodynamic diameter) [2, 18]: 2.9 um; Throat hold up [2, 18]: 31.5%; FPM (fine particle mass) [2, 19]: 30.2 µg; ISM (impactor sized mass) [2, 19]: 35.7 µg; MMAD (mass median aerodynamic diameter) [2, 20]: 3.2 um; Throat hold up [2, 20]: 48.6%; FPM (fine particle mass) [2, 21]: 23.1 µg; ISM (impactor sized mass) [2, 21]: 31.5 µg; MMAD (mass median aerodynamic diameter) [2, 22]: 3.0 um; Throat hold up [2, 22]: 46.0%; FPM (fine particle mass) [2, 23]: 26.3 µg; ISM (impactor sized mass) [2, 23]: 34.9 µg
13.8 | 13.3 | 14.4 | 11.6 | 12.3 | 1.8 | 16.1 | 1.9 | 34.0 | 10.8 | 10.0 | 2.0 | 28.5 | 9.9 | 10.8 | 3.7 | 43.4 | 6.5 | 8.9 | 3.1 | OCc1cc([C@@H](O)CNCCCCCCOCCOCc2c(Cl)cccc2Cl)ccc1O [VT, vilanterol trifenatate] | Throat hold up [2, 16]: 41.0%; FPM (fine particle mass) [2, 17]: 7.5 µg; ISM (impactor sized mass) [2, 17]: 9.8 µg; MMAD (mass median aerodynamic diameter) [2, 18]: 2.6 um; Throat hold up [2, 18]: 31.1%; FPM (fine particle mass) [2, 19]: 8.4 µg; ISM (impactor sized mass) [2, 19]: 9.5 µg; MMAD (mass median aerodynamic diameter) [2, 20]: 2.0 um; Throat hold up [2, 20]: 37.8%; FPM (fine particle mass) [2, 21]: 8.9 µg; ISM (impactor sized mass) [2, 21]: 9.9 µg; MMAD (mass median aerodynamic diameter) [2, 22]: 2.0 um; Throat hold up [2, 22]: 36.1%; FPM (fine particle mass) [2, 23]: 10.3 µg; ISM (impactor sized mass) [2, 23]: 11.2 µg
